Assay results as given in patent US20260130959A1, “FUNGAL EXTRACTS AND FLAVOR COMBINATIONS THEREOF” (MYCOTECHNOLOGY, INC., priority 2019, published 2026).

Test system: Sprague-Dawley rats
Test: Rat lick study (Davis Rig) on saccharin, citric acid and quinine
Type: in vivo
Settings: water 192 licks
Procedure: Bitter blocker prepared as described above in Example 2, at 5, 25, 50 and 100 mg/L alone (called CLEARTASTE® herein) and added to each solution below:
Sucrose 250 mM; Saccharin 10 mM; MSG 150 mM; NaCl 400 and 800 mM; Citric Acid 10 mM; Quinine 0.08 and 0.16 mM.
16 naïve, adult (>50 days old, approximately 200 gram body weight), male Sprague-Dawley rats were tested in the MS-160 “Davis Rig,” manufactured by DiLog Instruments, Inc. We measured licking behavior at a resolution of 1 ms during the controlled presentation of up to 16 taste stimuli. The Davis Rig is housed inside an acoustic isolation chamber utilizing a white noise generator. Intake and exhaust fans located on opposing walls of the chamber direct constant air flow along the longitudinal axis of the stimulus delivery tray in order to reduce olfactory cues for any given stimulus. Therefore all licking behavior during brief (30 s duration) trials was motivated by orosensory/taste sensations. Rats were trained to lick during trials presenting water as the stimulus in the Davis Rig for three consecutive days prior to the start of testing. Each daily test session contained two blocks of 15 trials producing two replications of each test stimulus within each daily session. We tested the rats for a total of eight days.

C=C[C@H]1C[N@@]2CC[C@H]1C[C@H]2[C@H](O)c1ccnc2ccc(OC)cc12 [quinine]
licks (0.08 mM quinine alone): 170 licks
licks (0.16 mM quinine alone): 70 licks
